Measurements as given in patent US20240239790A1, “7-Morpholino-1,6-Naphthyridin-5-yl Derivatives and Pharmaceutical Compositions Thereof Useful as DNA-PK Inhibitor” (adMare Therapeutics Society, priority 2021, published 2024).
Where two headings read alike, the source gives them in different places. One block for each compound: values may come before it.

Columns and labels:
[1] = Pharmacokinetic study in male Beagle dogs (IV and PO), plasma; type: in vivo, dog; conditions: for AUC—% Extrap—obs / Cl_obs / Vz_obs / AUC(0-t) / half-life / AUC(0-inf) / Cmax: dog plasma; for F: dog; for AUC(0-t) / half-life / AUC(0-inf) / Cmax: male, Beagle; for AUC(0-inf): read-out: AUCINF—obs; for Cmax: read-out: Cmax (5 min)
Method: Pharmacokinetic studies were conducted to estimate plasma concentrations obtained after oral gavage (PO) and intravenous (IV) single administration of compounds administered to separate groups of male Beagle dogs. Three (3) dogs were administered a compound via the intravenous (IV) route at 3 mg/kg and 2.5 mL/kg, and plasma was collected at 12 timepoints over a 24-hour period. Following a 7 days washout period, the same dogs were administered the same compound via PO at 10 mg/kg and 5 mL/kg, and plasma was collected at 12 timepoints over a 48-hour period.
(§1) The in-vivo study plasma samples were analyzed using Ultra Performance Liquid Chromatography (UPLC) with tandem mass spectrometry (MS/MS) detection in multiple reaction monitoring (MRM) mode. A generic bioanalytical method involving plasma sample extraction and cleanup by protein precipitation with acetonitrile was used followed by UPLC-MS/MS analysis.
(§2) A brief example of a generic bioanalytical UPLC-MS/MS method used for analysis of compounds in the in-vivo study plasma samples is as follows. Plasma samples were spiked with internal standard prior to extraction and cleanup by protein precipitation with ice cold acetonitrile containing 0.1% (v/v) ammonium hydroxide at a ratio of 3:1 (solvent:plasma) and centrifuged at 18213 rcf for 15 minutes at 4° C. to pellet precipitates. Aliquots of supernatants were transferred to a 96-well plate and evaporated to dryness at 40° C. under a stream of nitrogen gas. Samples were reconstituted in 50:50 acetonitrile/10 mM ammonium acetate buffer pH 8, mixed thoroughly and analyzed using Ultra Performance Liquid Chromatography (UPLC) with tandem mass spectrometry (MS/MS) detection in multiple reaction monitoring (MRM) mode. Matrix-matched calibration standards and quality control (QC) samples were prepared in naïve C57Bl/6 mouse plasma. The UPLC column used was Waters Acquity UPLC BEH C18 1.7 um, 2.1 mm×50 mm (with guard column). The UPLC mobile phase consisted of: Mobile phase A: 10 mM ammonium acetate in Water pH 8, and Mobile phase B: Acetonitrile. Separation was accomplished with a linear gradient of 5% mobile phase B to 95% mobile phase B in 2 min, and a flow rate of 0.35 mL/min. The MS/MS data acquisition was accomplished using 3 MRM Transitions in ESI+ mode. Parent ion mass 508.37 m/z-to-Daughter ions (m/z) 117.05, 232.13 and 270.22. The quantitation of concentrations in test samples was achieved by matrix-matched calibration with normalization using an internal standard. Data acquisition and analysis were performed using Waters MassLynx software with TargetLynx application manager.
(§3) Estimation of PK parameters was performed using independent noncompartmental model method by PHOENIX WinNonlin software.

[2] = Pharmacokinetic study in male Sprague-Dawley rats (IV and PO), plasma; type: in vivo, rat; conditions: for AUC(0-t) / Cmax at 5 min / half-life / AUC(0-inf): male, Sprague-Dawley; for AUC(0-t) / Cmax at 5 min / half-life / AUC(0-inf) / AUC—% Extrap—obs / Cl_obs / Vz_obs: rat plasma; for AUC(0-inf): read-out: AUCINF—obs; for F: rat
Method: Pharmacokinetic studies were conducted to estimate plasma concentrations obtained after oral gavage (PO) and intravenous (IV) single administration of compounds administered to male Sprague-Dawley rats. Six (6) rats were administered for each compound, route and dose, and plasma was collected at 12 timepoints over a 24 hr period for IV, and 12 timepoints over a 48 hr period for PO. Note that plasma was collected from only 3 animals per timepoint (n=3 for timepoints up to 10 hours, and n=3 for timepoints from 16 h to end of study). Dosing volumes were 5 mL/kg for IV and 10 mL/kg for PO gavage. IV compounds for administration were in solutions, whereas PO compounds were in solution or suspension.
as §1, §2, §3

[3] = system: FaDu tumour xenograft; experiment: Tumour Growth Delay, FaDu tumour xenograft-bearing animals, compound ± radiation (TGD-ER); type: in vivo; conditions: PO
Method: FaDu tumour xenograft-bearing animals were monitored for tumour growth and once average tumour size reached approximately 100-250 mm3, animals were assigned to treatment cohorts using stratified randomization. […]
For BID dosing regimens, at 8 h following the first injection, animals were again administered with test compound at the same dose as their previous administration. Animals were weighed and had tumours measured using calipers three times weekly until the endpoint of maximum tumour volume, 1000 mm3, was reached and animals were euthanized. Tumour volumes were calculated according to the equation L×W^2/2 with the length (mm) being the longer axis of the tumour; in the case that no tumour was palpable, tumour volumes were recorded as 0 mm^3.
Data were calculated as tumour growth normalized to day 0 measurements, with time to tumour doubling determined. Average time to tumour doubling for each group was used to determine a Tumour Growth Delay Enhancement Ratio (TGD-ER): the time to doubling for treatment groups were divided by the time to doubling for irradiation-alone groups to determine group-specific TGD-ER values, and these were assigned scores based on defined response ranges: values>2.5=A, 1-2.5=B, <1=C.

AUC—% Extrap—obs ([1]; IV, 3 mg/kg): 5.80%
Cl_obs ([1]; IV, 3 mg/kg): 28.2873 mL/min/kg
Vz_obs ([1]; IV, 3 mg/kg): 28.9956 L/kg
AUC—% Extrap—obs ([1]; PO, 10 mg/kg): 0.51%
Cl_obs ([1]; PO, 10 mg/kg): 28.6397 mL/min/kg
Vz_obs ([1]; PO, 10 mg/kg): 6.54871 L/kg
F ([1]; PO, 10 mg/kg): 105%
AUC(0-t) ([1]; IV, 3 mg/kg): 1730 ng·h/mL
half-life ([1]; IV, 3 mg/kg): 13.1 h
AUC(0-inf) ([1]; IV, 3 mg/kg): 1850 ng·h/mL
Cmax ([1]; IV, 3 mg/kg): 1730 ng/mL
AUC(0-t) ([1]; PO, 10 mg/kg): 6090 ng·h/mL
half-life ([1]; PO, 10 mg/kg): 2.62 h
AUC(0-inf) ([1]; PO, 10 mg/kg): 6130 ng·h/mL
Cmax ([1]; PO, 10 mg/kg): 1540 ng/mL
AUC(0-t) ([2]; IV, 3 mg/kg): 371 ng·h/mL
Cmax at 5 min ([2]; IV, 3 mg/kg): 886 ng/mL
half-life ([2]; IV, 3 mg/kg): 0.67 h
AUC(0-inf) ([2]; IV, 3 mg/kg): 374 ng·h/mL
AUC(0-t) ([2]; PO, 3 mg/kg): 71.6 ng·h/mL
Cmax at 5 min ([2]; PO, 3 mg/kg): 28.2 ng/mL
half-life ([2]; PO, 3 mg/kg): 2.59 h
AUC(0-inf) ([2]; PO, 3 mg/kg): 78.4 ng·h/mL
AUC(0-t) ([2]; PO, 10 mg/kg): 1290 ng·h/mL
Cmax at 5 min ([2]; PO, 10 mg/kg): 203 ng/mL
half-life ([2]; PO, 10 mg/kg): 2.39 h
AUC(0-inf) ([2]; PO, 10 mg/kg): 1490 ng·h/mL
AUC(0-t) ([2]; PO, 30 mg/kg): 14100 ng·h/mL
Cmax at 5 min ([2]; PO, 30 mg/kg): 1600 ng/mL
half-life ([2]; PO, 30 mg/kg): 1.26 h
AUC(0-inf) ([2]; PO, 30 mg/kg): 14100 ng·h/mL
AUC—% Extrap—obs ([2]; IV, 3 mg/kg): 0.91%
Cl_obs ([2]; IV, 3 mg/kg): 133.623 mL/min/kg
Vz_obs ([2]; IV, 3 mg/kg): 7.72522 L/kg
AUC—% Extrap—obs ([2]; PO, 3 mg/kg): 8.66%
Cl_obs ([2]; PO, 3 mg/kg): 637.8442 mL/min/kg
Vz_obs ([2]; PO, 3 mg/kg): 142.79445 L/kg
AUC—% Extrap—obs ([2]; PO, 10 mg/kg): 13.08%
Cl_obs ([2]; PO, 10 mg/kg): 111.962 mL/min/kg
Vz_obs ([2]; PO, 10 mg/kg): 23.13291 L/kg
AUC—% Extrap—obs ([2]; PO, 30 mg/kg): 0.0%
Cl_obs ([2]; PO, 30 mg/kg): 35.5335 mL/min/kg
Vz_obs ([2]; PO, 30 mg/kg): 3.87755 L/kg
F ([2]; PO, 3 mg/kg): 19%
F ([2]; PO, 10 mg/kg): 105%
F ([2]; PO, 30 mg/kg): 379%
SMILES: CN(C)C(=O)Cn1ccc2nc(N[C@H]3CC[C@@H](Oc4nc(N5CCOCC5)cc5ncccc45)CC3)ncc21 [Compound 86, N,N-Dimethyl-2-(2-(((1s,4s)-4-((7-morpholino-1,6-naphthyridin-5-yl)oxy)cyclohexyl)amino)-5H-pyrrolo[3,2-d]pyrimidin-5-yl)acetamide]
TGD-ER Range Score ([3]; 30 mpk BID + 10 Gy): B (1-2.5=B)
TGD-ER Range Score ([3]; (30 mpk + 2 Gy) Q5D): A (values>2.5=A)
TGD-ER Range Score ([3]; (30 mpk) Q5D): B (1-2.5=B)

AUC—% Extrap—obs ([1]; IV, 3 mg/kg): 0.79%
Cl_obs ([1]; IV, 3 mg/kg): 14.338 mL/min/kg
Vz_obs ([1]; IV, 3 mg/kg): 4.48058 L/kg
AUC—% Extrap—obs ([1]; PO, 10 mg/kg): 0.78%
Cl_obs ([1]; PO, 10 mg/kg): 35.8008 mL/min/kg
Vz_obs ([1]; PO, 10 mg/kg): 11.52897 L/kg
F ([1]; PO, 10 mg/kg): 46%
AUC(0-t) ([1]; IV, 3 mg/kg): 3480 ng·h/mL
half-life ([1]; IV, 3 mg/kg): 3.64 h
AUC(0-inf) ([1]; IV, 3 mg/kg): 3500 ng·h/mL
Cmax ([1]; IV, 3 mg/kg): 3700 ng/mL
AUC(0-t) ([1]; PO, 10 mg/kg): 5300 ng·h/mL
half-life ([1]; PO, 10 mg/kg): 4.39 h
AUC(0-inf) ([1]; PO, 10 mg/kg): 5340 ng·h/mL
Cmax ([1]; PO, 10 mg/kg): 1070 ng/mL
AUC(0-t) ([2]; IV, 3 mg/kg): 912 ng·h/mL
Cmax at 5 min ([2]; IV, 3 mg/kg): 1600 ng/mL
half-life ([2]; IV, 3 mg/kg): 1.49 h
AUC(0-inf) ([2]; IV, 3 mg/kg): 913 ng·h/mL
AUC(0-t) ([2]; PO, 3 mg/kg): 241 ng·h/mL
Cmax at 5 min ([2]; PO, 3 mg/kg): 87.5 ng/mL
half-life ([2]; PO, 3 mg/kg): 5.68 h
AUC(0-inf) ([2]; PO, 3 mg/kg): 330 ng·h/mL
AUC(0-t) ([2]; PO, 10 mg/kg): 1070 ng·h/mL
Cmax at 5 min ([2]; PO, 10 mg/kg): 235 ng/mL
half-life ([2]; PO, 10 mg/kg): 2.64 h
AUC(0-inf) ([2]; PO, 10 mg/kg): 1220 ng·h/mL
AUC(0-t) ([2]; PO, 30 mg/kg): 5760 ng·h/mL
Cmax at 5 min ([2]; PO, 30 mg/kg): 655 ng/mL
half-life ([2]; PO, 30 mg/kg): 13.7 h
AUC(0-inf) ([2]; PO, 30 mg/kg): 15800 ng·h/mL
AUC—% Extrap—obs ([2]; IV, 3 mg/kg): 0.10%
Cl_obs ([2]; IV, 3 mg/kg): 54.761 mL/min/kg
Vz_obs ([2]; IV, 3 mg/kg): 7.05679 L/kg
AUC—% Extrap—obs ([2]; PO, 3 mg/kg): 26.80%
Cl_obs ([2]; PO, 3 mg/kg): 151.581 mL/min/kg
Vz_obs ([2]; PO, 3 mg/kg): 74.5443 L/kg
AUC—% Extrap—obs ([2]; PO, 10 mg/kg): 12.39%
Cl_obs ([2]; PO, 10 mg/kg): 136.306 mL/min/kg
Vz_obs ([2]; PO, 10 mg/kg): 31.192 L/kg
AUC—% Extrap—obs ([2]; PO, 30 mg/kg): 63.5%
Cl_obs ([2]; PO, 30 mg/kg): 31.6652 mL/min/kg
Vz_obs ([2]; PO, 30 mg/kg): 37.65453 L/kg
F ([2]; PO, 3 mg/kg): 26%
F ([2]; PO, 10 mg/kg): 35%
F ([2]; PO, 30 mg/kg): 63%
SMILES: O=C(COc1cnc(N[C@H]2CC[C@@H](Oc3nc(N4CCOCC4)cc4ncccc34)CC2)nc1)N1CCOCC1 [Compound 61, 1-Morpholino-2-((2-(((1s,4s)-4-((7-morpholino-1,6-naphthyridin-5-yl)oxy)cyclohexyl)amino)pyrimidin-5-yl)oxy)ethan-1-one]
TGD-ER Range Score ([3]; (30 mpk + 2 Gy) Q5D): A (values>2.5=A)
TGD-ER Range Score ([3]; (30 mpk) Q5D): C (<1=C)

SMILES: CN(C)C(=O)COc1cnc(N[C@H]2CC[C@@H](Oc3nc(N4CCOCC4)cc4ncccc34)CC2)nc1 [Compound 54, N,N-Dimethyl-2-((2-(((1s,4s)-4-((7-morpholino-1,6-naphthyridin-5-yl)oxy)cyclohexyl)amino)pyrimidin-5-yl)oxy)acetamide]
TGD-ER Range Score ([3]; 10 mpk + 10 Gy): B (1-2.5=B)
TGD-ER Range Score ([3]; 30 mpk + 10 Gy): A (values>2.5=A)
TGD-ER Range Score ([3]; 100 mpk + 10 Gy): B (1-2.5=B)

SMILES: O=C(COc1cnc(N[C@H]2CC[C@@H](Oc3nc(N4CCOCC4)cc4ncccc34)CC2)nc1)N1CCC1 [Compound 75, 1-(Azetidin-1-yl)-2-((2-(((1s,4s)-4-((7-morpholino-1,6-naphthyridin-5-yl)oxy)cyclohexyl)amino)pyrimidin-5-yl)oxy)ethan-1-one]
TGD-ER Range Score ([3]; 30 mpk BID + 10 Gy): B (1-2.5=B)
